Test results reported in paper PMC2680759, “Non-Invasive Molecular Imaging of Fibrosis Using a Collagen-Targeted Peptidomimetic of the Platelet Collagen Receptor Glycoprotein VI” (PLoS ONE, 2009).
Bridges are numbered along the chain shown (N, C = ends). Where no end group is shown, it is not given here.

Columns and labels:
Settings in all cases: biotin-peptide 50 µg/mL, microtitration plate, n = 3
[1] = tested on: collagen related peptide (CRP); experiment: Solid phase assay, collagen related peptide; assay type: binding
Procedure: (§1) Biotin-peptides (50 µg.mL^−1) were incubated on microtitration wells, coated with 1 µg of type-I collagen, convulxin, collagen related peptides, bovine fibrinogen, human fibronectin, rat vitronectin, murine laminin or bovine serum albumin. Bound peptides were detected using HRP-coupled extravidin and the HRP substrate O-phenyl-dianisidine.

vitronectin = target: T1, vitronectin (Rattus norvegicus, UniProt F7F5X0); experiment: Solid phase assay, vitronectin; assay type: binding
T1 sequence (F7F5X0 20-490): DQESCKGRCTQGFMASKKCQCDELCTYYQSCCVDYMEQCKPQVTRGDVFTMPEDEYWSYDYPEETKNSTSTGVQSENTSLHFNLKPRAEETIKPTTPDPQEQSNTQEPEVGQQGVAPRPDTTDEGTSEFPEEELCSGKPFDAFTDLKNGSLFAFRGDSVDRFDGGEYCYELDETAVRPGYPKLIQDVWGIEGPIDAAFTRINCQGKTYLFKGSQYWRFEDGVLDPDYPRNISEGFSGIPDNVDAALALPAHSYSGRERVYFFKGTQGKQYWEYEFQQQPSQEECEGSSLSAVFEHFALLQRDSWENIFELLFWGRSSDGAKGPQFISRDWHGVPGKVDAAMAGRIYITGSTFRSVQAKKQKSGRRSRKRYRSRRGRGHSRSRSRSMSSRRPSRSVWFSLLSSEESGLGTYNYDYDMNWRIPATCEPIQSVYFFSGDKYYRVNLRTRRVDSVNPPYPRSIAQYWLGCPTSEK
Procedure: as §1

fibrinogen = target: T2, fibrinogen (Bos taurus, UniProt P02672+P02676+P12799); experiment: Solid phase assay, fibrinogen; assay type: binding, bovine
T2 sequence (P02672 20-615): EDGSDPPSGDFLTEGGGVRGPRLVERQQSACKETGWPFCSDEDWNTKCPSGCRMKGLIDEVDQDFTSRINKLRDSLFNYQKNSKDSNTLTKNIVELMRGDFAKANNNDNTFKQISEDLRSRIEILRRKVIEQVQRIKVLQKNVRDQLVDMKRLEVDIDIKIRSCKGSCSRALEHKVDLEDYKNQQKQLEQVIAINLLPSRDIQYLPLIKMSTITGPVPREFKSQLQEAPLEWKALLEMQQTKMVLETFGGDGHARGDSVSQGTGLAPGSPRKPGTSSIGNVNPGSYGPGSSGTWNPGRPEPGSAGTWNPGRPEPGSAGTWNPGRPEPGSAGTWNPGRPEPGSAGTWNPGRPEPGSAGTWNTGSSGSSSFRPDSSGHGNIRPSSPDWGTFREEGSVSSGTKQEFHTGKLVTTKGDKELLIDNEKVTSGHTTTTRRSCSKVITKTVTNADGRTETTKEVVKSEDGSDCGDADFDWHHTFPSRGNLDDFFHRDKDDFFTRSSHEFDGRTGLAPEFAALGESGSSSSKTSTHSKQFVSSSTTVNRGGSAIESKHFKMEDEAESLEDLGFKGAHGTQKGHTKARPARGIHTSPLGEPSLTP
T2 sequence (P02676 1-468): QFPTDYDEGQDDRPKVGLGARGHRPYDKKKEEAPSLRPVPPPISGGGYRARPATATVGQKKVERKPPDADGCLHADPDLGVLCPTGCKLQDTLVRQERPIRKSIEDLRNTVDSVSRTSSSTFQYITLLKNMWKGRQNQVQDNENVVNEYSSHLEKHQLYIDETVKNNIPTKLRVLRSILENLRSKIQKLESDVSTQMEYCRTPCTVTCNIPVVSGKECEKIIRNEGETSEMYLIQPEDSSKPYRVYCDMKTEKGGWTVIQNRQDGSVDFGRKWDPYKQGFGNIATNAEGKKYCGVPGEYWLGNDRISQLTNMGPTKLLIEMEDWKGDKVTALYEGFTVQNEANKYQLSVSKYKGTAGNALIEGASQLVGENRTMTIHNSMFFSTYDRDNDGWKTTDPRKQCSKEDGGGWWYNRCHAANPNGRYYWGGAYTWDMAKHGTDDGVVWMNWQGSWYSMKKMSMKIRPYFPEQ
T2 sequence (P12799 25-444): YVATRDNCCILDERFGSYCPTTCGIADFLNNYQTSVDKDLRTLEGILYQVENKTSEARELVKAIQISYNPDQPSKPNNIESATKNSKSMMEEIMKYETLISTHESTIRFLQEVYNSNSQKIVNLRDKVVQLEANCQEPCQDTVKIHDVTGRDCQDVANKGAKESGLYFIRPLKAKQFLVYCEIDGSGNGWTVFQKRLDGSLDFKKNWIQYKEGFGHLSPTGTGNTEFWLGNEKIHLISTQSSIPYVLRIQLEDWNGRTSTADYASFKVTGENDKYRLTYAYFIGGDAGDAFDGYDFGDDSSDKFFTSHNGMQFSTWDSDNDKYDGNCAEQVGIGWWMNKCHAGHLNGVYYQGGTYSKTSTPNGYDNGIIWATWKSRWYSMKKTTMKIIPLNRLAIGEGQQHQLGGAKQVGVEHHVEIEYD
Procedure: as §1

fibronectin = fibronectin (Homo sapiens, UniProt P02751); experiment: Solid phase assay, fibronectin; assay type: binding
fibronectin, sequence (P02751 32-2477): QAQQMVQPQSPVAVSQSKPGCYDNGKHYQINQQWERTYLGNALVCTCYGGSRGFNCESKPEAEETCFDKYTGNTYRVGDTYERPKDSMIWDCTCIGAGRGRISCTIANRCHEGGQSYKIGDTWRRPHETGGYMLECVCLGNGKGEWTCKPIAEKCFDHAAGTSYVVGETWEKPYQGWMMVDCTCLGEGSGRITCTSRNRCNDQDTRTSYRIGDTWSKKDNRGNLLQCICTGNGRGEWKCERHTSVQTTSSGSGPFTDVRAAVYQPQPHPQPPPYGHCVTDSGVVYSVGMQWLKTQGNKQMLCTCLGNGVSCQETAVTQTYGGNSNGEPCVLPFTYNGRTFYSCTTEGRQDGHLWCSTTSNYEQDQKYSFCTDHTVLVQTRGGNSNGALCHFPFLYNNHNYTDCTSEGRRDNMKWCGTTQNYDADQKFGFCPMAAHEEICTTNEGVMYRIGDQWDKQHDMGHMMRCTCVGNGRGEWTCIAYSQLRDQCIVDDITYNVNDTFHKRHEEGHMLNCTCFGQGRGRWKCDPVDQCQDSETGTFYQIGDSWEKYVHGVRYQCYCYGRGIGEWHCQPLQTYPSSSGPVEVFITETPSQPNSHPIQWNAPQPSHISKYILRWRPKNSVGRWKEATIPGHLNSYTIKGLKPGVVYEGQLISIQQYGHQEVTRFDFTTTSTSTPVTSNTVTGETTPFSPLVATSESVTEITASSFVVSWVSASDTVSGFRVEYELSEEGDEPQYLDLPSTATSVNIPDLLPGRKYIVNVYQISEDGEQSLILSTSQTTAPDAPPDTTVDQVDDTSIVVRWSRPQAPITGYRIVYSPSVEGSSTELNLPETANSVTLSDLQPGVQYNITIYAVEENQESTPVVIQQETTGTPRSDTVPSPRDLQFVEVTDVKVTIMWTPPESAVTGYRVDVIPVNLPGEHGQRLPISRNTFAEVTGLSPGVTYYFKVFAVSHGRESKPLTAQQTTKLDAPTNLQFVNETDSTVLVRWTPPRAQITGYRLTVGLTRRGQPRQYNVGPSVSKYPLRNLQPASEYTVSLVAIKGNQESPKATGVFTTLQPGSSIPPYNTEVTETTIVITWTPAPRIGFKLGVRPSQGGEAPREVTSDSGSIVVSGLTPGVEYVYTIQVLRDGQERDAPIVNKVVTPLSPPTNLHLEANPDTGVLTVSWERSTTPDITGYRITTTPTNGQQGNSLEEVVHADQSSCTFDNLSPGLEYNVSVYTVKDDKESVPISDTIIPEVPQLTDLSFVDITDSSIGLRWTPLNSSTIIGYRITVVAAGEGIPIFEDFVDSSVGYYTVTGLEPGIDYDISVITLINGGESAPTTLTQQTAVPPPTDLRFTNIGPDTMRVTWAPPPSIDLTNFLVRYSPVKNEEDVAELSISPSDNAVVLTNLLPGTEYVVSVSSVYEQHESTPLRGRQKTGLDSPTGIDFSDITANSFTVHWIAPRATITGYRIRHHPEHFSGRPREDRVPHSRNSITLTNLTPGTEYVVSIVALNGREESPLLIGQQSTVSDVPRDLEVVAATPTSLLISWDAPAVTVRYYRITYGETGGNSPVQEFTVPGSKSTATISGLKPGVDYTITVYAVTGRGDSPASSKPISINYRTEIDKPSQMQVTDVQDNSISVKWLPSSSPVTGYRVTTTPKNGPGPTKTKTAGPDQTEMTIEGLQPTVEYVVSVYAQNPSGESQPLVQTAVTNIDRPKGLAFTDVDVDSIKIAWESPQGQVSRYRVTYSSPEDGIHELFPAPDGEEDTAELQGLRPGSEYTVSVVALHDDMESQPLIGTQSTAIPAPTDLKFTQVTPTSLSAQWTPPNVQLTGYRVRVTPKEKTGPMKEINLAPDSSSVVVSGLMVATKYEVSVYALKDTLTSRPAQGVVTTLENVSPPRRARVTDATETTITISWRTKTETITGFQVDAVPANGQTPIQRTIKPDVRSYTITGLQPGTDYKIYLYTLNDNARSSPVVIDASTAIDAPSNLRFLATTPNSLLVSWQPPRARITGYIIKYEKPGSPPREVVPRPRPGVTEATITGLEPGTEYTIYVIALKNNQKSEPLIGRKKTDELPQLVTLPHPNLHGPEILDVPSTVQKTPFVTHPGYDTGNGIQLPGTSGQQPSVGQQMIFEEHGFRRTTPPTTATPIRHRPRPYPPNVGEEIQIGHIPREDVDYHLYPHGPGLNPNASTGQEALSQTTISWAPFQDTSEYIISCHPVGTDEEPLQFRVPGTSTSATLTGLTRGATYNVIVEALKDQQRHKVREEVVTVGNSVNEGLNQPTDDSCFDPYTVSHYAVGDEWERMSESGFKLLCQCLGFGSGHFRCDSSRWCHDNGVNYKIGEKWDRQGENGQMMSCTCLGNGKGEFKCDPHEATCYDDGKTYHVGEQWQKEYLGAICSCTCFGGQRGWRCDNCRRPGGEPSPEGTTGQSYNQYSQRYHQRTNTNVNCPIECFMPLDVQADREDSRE
Procedure: as §1

laminin = laminin (Mus musculus, UniProt P02468+P02469+P19137); experiment: Solid phase assay, laminin; assay type: binding, murine
Procedure: as §1

| Binding to immobilized CRP [1] | Binding to immobilized vitronectin (vitronectin) | Binding to immobilized fibrinogen (fibrinogen) | Binding to immobilized fibronectin (fibronectin) | Binding to immobilized laminin (laminin) | Compound |
| --- | --- | --- | --- | --- | --- |
| did not bind | did not bind | did not bind | did not bind | did not bind | SGSGCGPQGARGLTGASAGGPC (disulfide 5-22 (inferred)) [reference compound] |
| bound | either to be weak or not to occur at all | either to be weak or not to occur at all | either to be weak or not to occur at all | consistently bound | CSCC[C@@H]1NC(=O)[C@H](C(C)C)NC(=O)[C@H](CCCNC(=N)N)NC(=O)CNC(=O)[C@@H]2CCCN2C(=O)[C@@H](NC(=O)CNC(=O)[C@H](CO)NC(=O)CNC(=O)[C@H](CO)NC(=O)CCCC[C@@H]2SC[C@@H]3NC(=O)N[C@@H]32)CSSC[C@@H](C(N)=O)NC(=O)[C@@H]2CCCN2C(=O)CNC(=O)[C@H](CCC(=O)O)NC(=O)[C@H](CC(=O)O)NC(=O)[C@H](CC(=O)O)NC(=O)CNC(=O)[C@H](CC(C)C)NC(=O)[C@H](Cc2c[nH]cn2)NC(=O)[C@H](CC(C)C)NC(=O)CNC(=O)[C@H](Cc2c[nH]cn2)NC1=O [collagelin] |
